Earlier results, collected in patent US20210212962A1, “METHODS AND COMPOSITIONS FOR THE TREATMENT OF GRANULOMA ANNULARE OR SUBCUTANEOUS INFLAMMATION AND NON-INFECTION GRANULOMATOUS DISEASES” (Sol-Gel Technologies Ltd., priority 2020, published 2021).

Conditions: known for tapinarof treatments

## CC(C)c1c(O)cc(/C=C/c2ccccc2)cc1O [tapinarof, 3,5-dihydroxy-4-isopropyl-trans-stilbene]
  folliculitis as a side effect in tapinarof treatments: 10%
